Measured values taken from patent US10966940B2, “Methods for the treatment of tinnitus induced by cochlear excitotoxicity” (INSTITUT NATIONAL DE LA SANTE ET DE LA RECHERCHE MEDICALE …, priority 2004, dated 2021).

How the values were obtained:
NMDA receptors = conditions: local administration; cited from earlier work
tinnitus = conditions: systemic administration; cited from earlier work
[1] = tested on: salicylate-induced tinnitus; conditions: cited from earlier work; for false positive responses (jumps in absence of sound) induced by the substance: tinnitus induction; for number of false positives after delivery to the cochleas via the round window membrane: salicylate-treated animals
[2] = tested on: sensory outer hair cells (OHC) and inner hair cell (IHC) synaptic complex; conditions: 350 mg/kg i.p. twice a day for 2 days
Procedure: After decapitation of the rats under deep anaesthesia (pentobarbital 50 mg/kg), the cochleas were removed from the temporal bone and perfused with a fixative solution of 2.5% glutaraldehyde in 0.1 M phosphate-buffered saline (PBS), pH 7.3. They were then processed either for scanning (SEM) or transmission electron (TEM) microscopy. For SEM, the otic capsule was dissected out and the stria vascularis, tectorial, and Reissner's membranes were removed. After rinsing in PBS (pH 7.3) the samples were dehydrated in a graded series of ethanol (30-100%), critical point-dried in CO2, coated with gold palladium, and examined using a Hitachi S4000 microscope. For TEM, the cochleas were postfixed in a 1% aqueous solution of osmium tetroxide for 2 hours, rinsed in phosphate buffer, dehydrated in a graded series of ethanol (30-100%), and embedded in Epon resin. Transverse ultrathin sections of the organ of Corti were taken from the apical half of the cochlea. The sections, mounted on formvar-coated or mesh grids, were stained with uranyl acetate, and lead citrate and examined using a Hitachi 7100 microscope.

[3] = tested on: NR1 subunit of the cochlear NMDA receptor; conditions: 350 mg/kg i.p. twice over 24 hours; sample after 24 hours
Procedure: The salicylate dose used is known to induce tinnitus (Guitton et al., J. of Neuroscience 23 (9): 3944-3952 (2003)). Another group of 3 animals served as control and was injected i.p. with a NaCl 0.9% solution of the same volume as salicylate treated animals. Samples were obtained after 24 hours in the salicylate and control groups and 24 hours respectively 5 days post incident for the acoustic trauma group.
Tissues were harvested in cold PBS and homogenized in sample buffer, and the lysates were centrifuged to remove detergent-insoluble material and separated on a 10% SDS-PAGE in Tris/Tricine. After gel electrophoresis, proteins were transferred electrophoretically to nitrocellulose membranes (PVDF transfer membrane Hybond-P, Amersham Pharmacia Biotech, USA). Blots were first incubated with a primary anti-antibody against the NMDA NR1 receptor subunit (1/1000 dilution; rabbit polyclonal antibody, Chemicon international, USA), and with a primary antibody anti-actin (1/50000 dilution, mouse monoclonal anti-β-actin, Sigma, USA) overnight at 4° C. To verify that the molecular weight of the NR1 subunit is identical in both brain and cochlea, immunoblots from the brain of control animals were performed. […] Image scanning of Western blots was then performed for semi-quantification of expression levels of NR1 and actin proteins using Biorad Fluor-S software (Quantity one).

[4] = in vivo; cited from earlier work
guinea pigs [5] = assay: CAP audiogram (hearing threshold) in ESA noise trauma model; format: in vivo, guinea pig; conditions: local administration onto round window membrane
Procedure: A teflon-coated platinum electrode implanted onto the round window membranes of both cochleas (with reference electrodes placed in a neck muscle) measured the ESA and the compound action potential of the auditory nerve (CAP). The surgery was performed using a posterior auricular surgical procedure (dorsal approach) prior to noise exposure. The reference electrode and the round window electrode were soldered to a plug fixed on the skull using dental cement (Unifast Trad, GC Corporation).
The CAP was measured concomitantly with ESA measurements using the same electrode. Tone bursts (with a duration of 9 ms and a rise/fall cycle of 1 ms, 10 per second) generated by an arbitrary function generator (LeCroy Corp., model 9100R) were applied to the animal's ear in free filed via a JBL 075 earphone. CAP audiograms were obtained by varying burst levels from 0 to 100 dB SPL in steps of 5 dB at the frequencies 2, 4, 6, 8, 10, 12, 16, 20, and 26 kHz. Auditory nerve responses were amplified (Tektronic TM 503; gain 2000), filtered (3.5 kHz low pass) and averaged on a PC (Dimension Pentium, Dell). CAP amplitudes were measured peak-to-peak between the first negative depression N1 and the subsequent positive wave P1. The CAP threshold was defined as the sound intensity (in dB SPL) needed to elicit a measurable response (greater than 5 μV). […]

Long-Evans rats = assay: Behavioral (active avoidance) model of tinnitus induced by cochlear excitotoxicity provoked by acute acoustic trauma; format: in vivo, rat
Procedure: We developed and tested an animal model of tinnitus induced by cochlear excitotoxicity, which was provoked by acoustic trauma. […] These considerations mean for example that more animals are required to obtain a sufficient number of tinnitus cases for study and to permit observation of tinnitus over time. As it is unclear whether a case of tinnitus induced by cochlear excitotoxicity is to last or not, it is advisable to conduct studies in its early stages.
The experiments were performed in two stages. First, the hearing loss following acute acoustic trauma as well as the incidence of tinnitus were evaluated with no therapeutic compound administered.
During experiments, animals were caged individually at a constant temperature with a day/night cycle of 12/12 hours. All behavioral tests were performed in the dark phase, the usual period of animal activity, for every animal individually at about the same time each day. Outside the experiments, the animals received water and nutrition ad libidum. A total of 60 animals were used: 30 for the first stage (of which 25 were tested by behavioral techniques and 5 by electrophysiology), and 30 for the second stage with 10 for each pharmaceutical compound tested.
Acoustic trauma was induced by a continuous pure tone of 6 kHz generated by a waveform synthesizer (Hewlett-Packard 8904A). The animals were anesthetized and exposed to 130 dB sound pressure level (SPL) for 20 minutes, which was routed through a programmable attenuator and presented to the ears in free field via a JBL 075 earphone positioned 10 cm in front of the animal's head. Sound level was measured using a calibrated Bruel and Kjaer microphone (4314) and a Bruel and Kjaer calibrating amplifier (2606).
Behavioral conditioning and testing Animals were conditioned to achieve active avoidance (Guitton et al., J. of Neuroscience 23 (9): 3944-3952 (2003)). Behavioral testing consisted of the performance of a task whenever a sound was produced in a conditioning box with an electrical floor and a climbing pole. […] The unconditional stimulus consisted of an electric shock to the feet of the animals (3.7 mA) during maximally 30 seconds. Interstimulus intervals were 1 second. The electric shocks were stopped by the investigator once the animal correctly climbed onto the pole. Intervals between trials were at least one minute long.
The score was defined as the animal's performance, measured by the number of cases when it climbed correctly onto the pole in response to the sound. As soon as an animal had reached a score of at least 80% in three consecutive sessions, it was considered successfully conditioned and employed in the experiments.
Experiments were conducted daily with measurements of both score and false positive responses during one session of 10 minutes with 10 trials in total. False positive responses were climbings onto the pole between trials without any acoustic stimulation, i.e. during periods of silence. They can be interpreted as the perception of tinnitus, as the animals are performing the task of climbing onto the pole as if they were hearing the stimulus (Guitton et al., J. of Neuroscience 23 (9): 3944-3952 (2003)). Sound stimuli were randomized, and electrical footshocks were only delivered if the animals didn't climb onto the pole in response to sound.
Animals were anaesthetized with a single-dose i.p. injection of 0.3 ml/kg of pentobarbital at 6% (Sanofi) and operated under aseptic conditions right after the first behavioral testing (day 0). The two bullae were opened through a posterior auricular surgical procedure (dorsal approach). After exposure of the two cochleas, gelfoam (Gelita tampon, B. Braun Medical AG) impregnated with 2.5 μl artificial perilymph containing the pharmaceutical compounds was placed on the each of the round windows of the two cochleas. The concentration of all three pharmaceutical compounds used was 50 μM.

guinea pigs [6] = assay: ESA noise trauma model: ensemble spontaneous activity of the cochlear nerve; format: in vivo, guinea pig; conditions: for regular ESA peak centered at 900 Hz to 1 kHz: treated ear; for ESA spectral peak centered at 200 to 250 Hz (tinnitus): 50 microM in 0.7% hyaluronic acid gel, round window
Procedure: We developed therefore an animal model with guinea pigs that were exposed to intensive noise, producing acute acoustic trauma, and whose ESA was recorded to control for the absence or presence of tinnitus (“ESA noise trauma model”). The possibility to record tinnitus by electrophysiological tests provides an excellent tool for evaluating the therapeutic benefits of pharmaceutical compounds in suppressing tinnitus. The development of the ESA noise trauma model required extensive experimentation with different noise trauma protocols as well as the development and testing of specific measurement tools for extended observation periods in vivo.
The experiment was performed in two stages. First, guinea pigs were exposed to intense noise stimulation in order to provoke acute acoustic trauma (day 0). Auditory thresholds and ESA were determined and then followed further by repeated electrophysiological measurements. If persisting tinnitus could still be detected after at least 5 days, an NMDA receptor antagonists (ketamine or 7-CK) was applied in a hyaluronic acid formulation onto the round window membrane of the cochlea. […] After treatment with the NMDA receptor antagonists, electrophysiological measurements of hearing thresholds and ESA continued for at least 10 days. The primary endpoints of the study were to test whether the pharmacological treatment could suppress tinnitus even after its onset, and whether such treatment effect was persisting or not. As a control, contralateral ears were exposed to the same noise exposure and followed by electrophysiology.
Experiments were performed on adult pigmented guinea pigs (250 to 300 grams at study begin). During experiments, animals were caged individually. Outside the experiments, the animals received water and nutrition ad libidum. […] In two contralateral left ears, tinnitus was observed, so that they could be used as a control group.
Acoustic trauma was induced by a continuous pure tone of 6 kHz generated by a waveform synthesizer (Hewlett-Packard 8904A). […] Sound level was measured using a calibrated Bruel and Kjaer microphone (4314) and a Bruel and Kjaer calibrating amplifier (2606).
A teflon-coated platinum electrode implanted onto the round window membranes of both cochleas (with reference electrodes placed in a neck muscle) measured the ESA and the compound action potential of the auditory nerve (CAP). […]
The ESA was recorded from the platinum wire placed in the round window niche. […]
The ESA was measured just before acute acoustic trauma and 20 minutes following noise exposure on day 0, and then repeatedly for at least 10 days as described above. […] Subsequently, ESA was measured again on the first day after treatment (T+1) as well as 10 days after treatment (T+10). […]

[7] = tested on: PCP binding site of the NMDA receptor; conditions: higher affinity than (R)-ketamine; cited from earlier work

N[C@H](CCCP(=O)(O)O)C(=O)O [D-AP5, D-2-amino-5-phosphonopentanoic acid]
functional recovery and regrowth of auditory dendrites (NMDA receptors): delayed the functional recovery and the regrowth of auditory dendrites

C1C2CC3CC1CC(C2)C3 [adamantane]
tinnitus during treatment (tinnitus): reduction in tinnitus during treatment

Cc1cccc(Nc2ccccc2C(=O)O)c1C [mefenamate]
false positive responses (jumps in absence of sound) induced by the substance [1]: increased the number of false positive responses

C[C@]12N[C@H](Cc3ccccc31)c1ccccc12 [MK-801, dizocilpine]
number of false positives after delivery to the cochleas via the round window membrane [1]: decreased significantly

O=C([O-])c1ccccc1O.[Na+] [salicylate, sodium salicylate]
stereocilia of OHC and IHC ([2]; SEM): intact | ultrastructure of the IHC synaptic complex ([2]; TEM): No ultrastructural abnormalities | NR1 NMDA receptor subunit expression, higher than control animals [3]: 4% | false positive responses (jumps in absence of sound) induced by the substance [1]: significant increase

CCN(CC)CCn1c(=O)c(Cc2ccc(OC)cc2)nc2ccccc21 [caroverine]
intracochlear concentration, local versus systemic administration [4]: higher intracochlear concentrations

CC1CCCCC1(c1cccs1)N1CCCCC1 (stereo not drawn) [gacyclidine]
number of false positives after delivery to the cochleas via the round window membrane [1]: decreased significantly

CN[C@@]1(c2ccccc2Cl)CCCCC1=O (stereo in doubt) [S-(+)-Ketamine, 2-(2-chlorophenyl)-2-(methylamino)-cyclohexanone]
permanent threshold shift (PTS, hearing loss) after treatment (guinea pigs [5]): not changed | number of false positives (Long-Evans rats; group 1 (no increase), days 0 and 1): 0.22±0.22 false positives | number of false positives (Long-Evans rats; group 2 (reversible increase), day 0): 0.2±0.2 false positives | number of false positives (Long-Evans rats; group 2 (reversible increase), day 1): 5±0.48 false positives | recovery of behavioral score after trauma, in words (Long-Evans rats; local administration to round window membrane, 50 μM): improvement was slower than in untreated animals | effect on tinnitus (false positives), in words (Long-Evans rats; local administration to round window membrane, 50 μM, before acoustic trauma): only cases of transient tinnitus could be observed | number of animals with no increase in false positives (group 1) (Long-Evans rats; of 10 animals per compound): 5 | number of animals with only reversible increase in false positives (group 2, transient tinnitus) (Long-Evans rats; of 10 animals per compound): 5 | average score at stabilization (Long-Evans rats; rat, in vivo): 89%±2.3 | regular ESA peak centered at 900 Hz to 1 kHz (guinea pigs [6]; 10 days after treatment (T+10)): fully recovered | regular ESA peak centered at 900 Hz to 1 kHz (guinea pigs [6]; day T1 after treatment): still appeared, yet diminished | ESA spectral peak centered at 200 to 250 Hz (tinnitus) (guinea pigs [6]; day T1 after treatment, given after onset of persisting tinnitus): completely disappeared | ESA spectral peak centered at 200 to 250 Hz (tinnitus) (guinea pigs [6]; day T10 after treatment): remained absent | affinity relative to (R)-ketamine [7]: 3-4 fold
